In article PMC6757289, “Design and Characterization of SGK3-PROTAC1, an Isoform Specific SGK3 Kinase PROTAC Degrader” (ACS Chemical Biology, 2019):
Like-named read-outs stand apart in the source and are kept apart here.

What was measured:
Assay in all cases: kinase profiling panel
Assay type in all cases: biochemical
BRK = BRK (Homo sapiens, UniProt Q13882); conditions: read-out: % Activity Remaining
Excerpt: (§1) Protein kinase profiling against a Dundee panel of 140 protein kinases was undertaken at the International Centre for Protein Kinase Profiling. The result for each kinase was presented as a mean kinase activity of the reaction taken in triplicate relative to a control sample treated with DMSO. Assay conditions and abbreviations are available at http://www.kinase-screen.mrc.ac.uk.

ERK2 = ERK2 (Homo sapiens, UniProt P28482); conditions: read-out: % Activity Remaining
ERK2, sequence (P28482 whole entry): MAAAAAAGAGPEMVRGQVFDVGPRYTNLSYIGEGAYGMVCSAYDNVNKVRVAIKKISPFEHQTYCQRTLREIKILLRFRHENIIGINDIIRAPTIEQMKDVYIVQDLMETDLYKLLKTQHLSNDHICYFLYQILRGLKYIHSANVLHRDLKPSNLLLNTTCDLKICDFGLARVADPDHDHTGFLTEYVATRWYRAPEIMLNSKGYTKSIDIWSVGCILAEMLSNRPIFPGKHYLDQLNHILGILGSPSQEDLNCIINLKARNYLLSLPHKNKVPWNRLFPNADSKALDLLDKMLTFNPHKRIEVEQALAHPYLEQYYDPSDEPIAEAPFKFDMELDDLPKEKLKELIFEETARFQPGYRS
Excerpt: as §1

NUAK1 = target: T1, NUAK1 (Homo sapiens, UniProt O60285); conditions: read-out: % Activity Remaining
T1 sequence (O60285 1-661): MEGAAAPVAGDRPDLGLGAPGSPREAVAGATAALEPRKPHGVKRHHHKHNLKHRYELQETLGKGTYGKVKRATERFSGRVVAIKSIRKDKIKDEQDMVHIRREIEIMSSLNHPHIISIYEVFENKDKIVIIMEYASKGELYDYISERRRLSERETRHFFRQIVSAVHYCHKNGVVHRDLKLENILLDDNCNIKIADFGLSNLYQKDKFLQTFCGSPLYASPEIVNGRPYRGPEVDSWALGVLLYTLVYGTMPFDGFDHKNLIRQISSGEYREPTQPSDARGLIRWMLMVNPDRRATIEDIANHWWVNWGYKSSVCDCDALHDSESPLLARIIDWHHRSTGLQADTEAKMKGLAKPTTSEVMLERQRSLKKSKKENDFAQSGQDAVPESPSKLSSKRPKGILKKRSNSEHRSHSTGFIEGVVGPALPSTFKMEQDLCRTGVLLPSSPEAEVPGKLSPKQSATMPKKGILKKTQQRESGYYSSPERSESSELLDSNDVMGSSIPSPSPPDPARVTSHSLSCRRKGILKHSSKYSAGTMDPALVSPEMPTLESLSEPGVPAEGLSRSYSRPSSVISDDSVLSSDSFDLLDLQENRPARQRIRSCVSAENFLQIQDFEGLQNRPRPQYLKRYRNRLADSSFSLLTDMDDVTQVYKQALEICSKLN
Excerpt: as §1

DYRK1A = DYRK1A (Homo sapiens, UniProt Q13627); conditions: read-out: % Activity Remaining
Excerpt: as §1

PIM2 = PIM2 (Homo sapiens, UniProt Q9P1W9); conditions: read-out: % Activity Remaining
PIM2, sequence (Q9P1W9 whole entry): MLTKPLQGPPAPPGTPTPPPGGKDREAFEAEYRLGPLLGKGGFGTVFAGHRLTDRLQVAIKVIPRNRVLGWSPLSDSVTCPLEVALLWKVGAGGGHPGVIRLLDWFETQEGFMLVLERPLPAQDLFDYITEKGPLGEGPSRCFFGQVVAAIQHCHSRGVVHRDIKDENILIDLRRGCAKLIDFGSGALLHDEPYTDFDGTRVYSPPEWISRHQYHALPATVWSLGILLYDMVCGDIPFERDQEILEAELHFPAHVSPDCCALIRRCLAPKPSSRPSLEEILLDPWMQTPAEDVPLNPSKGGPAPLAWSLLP
Excerpt: as §1

DYRK2 = target: T2, DYRK2 (Homo sapiens, UniProt Q92630); conditions: read-out: % Activity Remaining
T2 sequence (Q92630 1-601): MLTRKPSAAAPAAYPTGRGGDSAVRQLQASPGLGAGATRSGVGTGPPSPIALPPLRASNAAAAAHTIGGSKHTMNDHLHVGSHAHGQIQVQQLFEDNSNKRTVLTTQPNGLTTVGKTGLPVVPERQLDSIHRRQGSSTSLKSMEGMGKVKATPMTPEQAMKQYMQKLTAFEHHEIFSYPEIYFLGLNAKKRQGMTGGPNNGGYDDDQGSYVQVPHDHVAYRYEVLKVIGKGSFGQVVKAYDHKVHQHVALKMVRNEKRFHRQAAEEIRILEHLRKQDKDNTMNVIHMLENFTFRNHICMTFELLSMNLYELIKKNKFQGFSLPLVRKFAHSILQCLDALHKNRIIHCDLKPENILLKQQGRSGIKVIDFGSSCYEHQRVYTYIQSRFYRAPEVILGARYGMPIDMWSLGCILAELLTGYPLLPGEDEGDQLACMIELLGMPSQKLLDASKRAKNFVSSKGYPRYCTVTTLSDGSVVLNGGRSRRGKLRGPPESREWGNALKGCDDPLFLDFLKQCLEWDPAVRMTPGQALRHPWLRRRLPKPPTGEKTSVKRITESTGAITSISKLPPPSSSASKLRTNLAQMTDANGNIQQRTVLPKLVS
Excerpt: as §1

SIK3 = SIK3 (Homo sapiens, UniProt Q9Y2K2); conditions: read-out: % Activity Remaining
SIK3, sequence (Q9Y2K2 whole entry): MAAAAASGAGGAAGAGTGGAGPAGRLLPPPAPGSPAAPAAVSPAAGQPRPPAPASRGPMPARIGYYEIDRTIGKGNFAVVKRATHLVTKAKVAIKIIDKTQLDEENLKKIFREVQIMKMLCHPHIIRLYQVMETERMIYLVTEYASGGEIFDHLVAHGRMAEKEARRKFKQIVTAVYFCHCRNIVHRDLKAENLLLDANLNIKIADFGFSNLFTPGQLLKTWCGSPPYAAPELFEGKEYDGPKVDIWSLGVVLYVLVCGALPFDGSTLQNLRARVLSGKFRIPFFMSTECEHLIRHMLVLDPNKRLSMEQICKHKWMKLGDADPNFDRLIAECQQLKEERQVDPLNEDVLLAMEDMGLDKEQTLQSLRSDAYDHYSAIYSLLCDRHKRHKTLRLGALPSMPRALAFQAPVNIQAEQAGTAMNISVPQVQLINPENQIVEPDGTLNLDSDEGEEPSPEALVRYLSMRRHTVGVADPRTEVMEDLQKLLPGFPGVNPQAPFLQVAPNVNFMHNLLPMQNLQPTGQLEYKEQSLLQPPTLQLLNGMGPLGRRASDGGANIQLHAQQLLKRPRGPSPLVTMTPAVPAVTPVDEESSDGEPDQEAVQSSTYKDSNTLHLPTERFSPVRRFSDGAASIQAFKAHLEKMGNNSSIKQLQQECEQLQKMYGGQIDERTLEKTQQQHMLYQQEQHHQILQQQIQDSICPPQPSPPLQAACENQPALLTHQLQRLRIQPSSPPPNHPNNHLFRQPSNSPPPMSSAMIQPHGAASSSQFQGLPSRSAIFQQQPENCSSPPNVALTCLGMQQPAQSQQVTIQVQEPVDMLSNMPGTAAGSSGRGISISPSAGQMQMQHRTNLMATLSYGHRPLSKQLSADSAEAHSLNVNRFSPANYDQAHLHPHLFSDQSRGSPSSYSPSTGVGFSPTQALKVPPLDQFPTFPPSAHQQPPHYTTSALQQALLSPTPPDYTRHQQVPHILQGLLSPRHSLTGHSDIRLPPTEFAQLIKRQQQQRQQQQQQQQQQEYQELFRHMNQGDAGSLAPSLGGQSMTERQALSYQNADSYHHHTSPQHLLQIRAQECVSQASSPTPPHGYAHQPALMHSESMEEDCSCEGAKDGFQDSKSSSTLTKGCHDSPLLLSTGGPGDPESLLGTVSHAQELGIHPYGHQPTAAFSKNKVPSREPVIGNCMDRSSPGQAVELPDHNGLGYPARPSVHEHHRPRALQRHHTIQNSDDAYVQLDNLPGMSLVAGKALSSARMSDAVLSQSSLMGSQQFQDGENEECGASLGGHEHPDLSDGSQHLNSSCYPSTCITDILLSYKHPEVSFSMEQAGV
Excerpt: as §1

IRAK1 = IRAK1 (Homo sapiens, UniProt P51617); conditions: read-out: % Activity Remaining
IRAK1, sequence (P51617 whole entry): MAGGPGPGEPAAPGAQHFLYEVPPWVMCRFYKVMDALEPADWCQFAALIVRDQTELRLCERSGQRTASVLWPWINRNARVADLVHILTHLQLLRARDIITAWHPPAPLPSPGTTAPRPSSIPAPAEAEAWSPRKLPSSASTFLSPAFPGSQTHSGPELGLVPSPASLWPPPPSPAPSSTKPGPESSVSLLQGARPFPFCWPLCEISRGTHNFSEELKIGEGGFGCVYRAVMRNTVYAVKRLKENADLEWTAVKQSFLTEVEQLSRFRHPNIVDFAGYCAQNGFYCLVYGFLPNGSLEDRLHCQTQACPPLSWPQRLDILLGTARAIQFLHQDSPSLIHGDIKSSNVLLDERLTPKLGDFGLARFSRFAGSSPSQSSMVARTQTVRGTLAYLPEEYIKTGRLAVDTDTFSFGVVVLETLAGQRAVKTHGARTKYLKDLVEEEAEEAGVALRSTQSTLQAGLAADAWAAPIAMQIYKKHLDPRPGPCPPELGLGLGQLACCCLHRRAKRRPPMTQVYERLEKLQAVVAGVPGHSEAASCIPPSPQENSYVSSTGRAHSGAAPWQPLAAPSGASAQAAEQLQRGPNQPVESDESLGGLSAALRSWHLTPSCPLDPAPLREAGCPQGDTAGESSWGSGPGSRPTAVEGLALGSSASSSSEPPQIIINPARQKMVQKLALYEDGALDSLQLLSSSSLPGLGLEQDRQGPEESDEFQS
Excerpt: as §1

BRSK2 = target: T3, BRSK2 (Homo sapiens, UniProt Q8IWQ3); conditions: read-out: % Activity Remaining
T3 sequence (Q8IWQ3 1-736): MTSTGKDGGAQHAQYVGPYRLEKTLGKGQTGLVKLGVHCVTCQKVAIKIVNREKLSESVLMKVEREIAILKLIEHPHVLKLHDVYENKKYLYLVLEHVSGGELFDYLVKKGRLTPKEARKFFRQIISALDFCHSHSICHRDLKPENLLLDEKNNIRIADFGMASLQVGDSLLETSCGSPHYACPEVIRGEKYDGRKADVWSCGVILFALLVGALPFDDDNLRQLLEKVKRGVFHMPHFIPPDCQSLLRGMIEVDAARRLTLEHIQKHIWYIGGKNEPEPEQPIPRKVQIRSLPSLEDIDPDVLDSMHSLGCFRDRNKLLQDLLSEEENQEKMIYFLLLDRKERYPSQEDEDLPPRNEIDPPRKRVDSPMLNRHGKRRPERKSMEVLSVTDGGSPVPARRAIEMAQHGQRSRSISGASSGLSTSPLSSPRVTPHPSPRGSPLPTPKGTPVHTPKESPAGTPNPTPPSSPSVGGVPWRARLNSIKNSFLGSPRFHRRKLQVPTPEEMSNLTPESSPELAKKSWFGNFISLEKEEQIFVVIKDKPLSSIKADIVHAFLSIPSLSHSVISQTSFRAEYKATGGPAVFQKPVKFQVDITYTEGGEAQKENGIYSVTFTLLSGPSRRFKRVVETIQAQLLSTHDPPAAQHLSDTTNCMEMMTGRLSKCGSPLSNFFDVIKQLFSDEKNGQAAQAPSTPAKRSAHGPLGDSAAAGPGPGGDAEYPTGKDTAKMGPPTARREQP
Excerpt: as §1

ERK1 = ERK1 (Homo sapiens, UniProt P27361); conditions: read-out: % Activity Remaining
ERK1, sequence (P27361 whole entry): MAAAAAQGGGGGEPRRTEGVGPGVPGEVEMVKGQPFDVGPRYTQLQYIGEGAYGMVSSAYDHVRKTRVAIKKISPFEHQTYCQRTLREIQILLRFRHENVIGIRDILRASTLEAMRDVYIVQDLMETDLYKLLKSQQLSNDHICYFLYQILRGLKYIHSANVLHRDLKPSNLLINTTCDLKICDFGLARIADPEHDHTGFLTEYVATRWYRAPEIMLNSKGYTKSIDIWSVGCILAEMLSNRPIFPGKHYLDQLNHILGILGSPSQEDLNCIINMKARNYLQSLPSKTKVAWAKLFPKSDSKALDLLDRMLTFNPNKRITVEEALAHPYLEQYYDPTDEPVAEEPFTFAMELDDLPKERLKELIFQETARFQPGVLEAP
Excerpt: as §1

STK33 = STK33 (Homo sapiens, UniProt Q9BYT3)
STK33, sequence (Q9BYT3 whole entry): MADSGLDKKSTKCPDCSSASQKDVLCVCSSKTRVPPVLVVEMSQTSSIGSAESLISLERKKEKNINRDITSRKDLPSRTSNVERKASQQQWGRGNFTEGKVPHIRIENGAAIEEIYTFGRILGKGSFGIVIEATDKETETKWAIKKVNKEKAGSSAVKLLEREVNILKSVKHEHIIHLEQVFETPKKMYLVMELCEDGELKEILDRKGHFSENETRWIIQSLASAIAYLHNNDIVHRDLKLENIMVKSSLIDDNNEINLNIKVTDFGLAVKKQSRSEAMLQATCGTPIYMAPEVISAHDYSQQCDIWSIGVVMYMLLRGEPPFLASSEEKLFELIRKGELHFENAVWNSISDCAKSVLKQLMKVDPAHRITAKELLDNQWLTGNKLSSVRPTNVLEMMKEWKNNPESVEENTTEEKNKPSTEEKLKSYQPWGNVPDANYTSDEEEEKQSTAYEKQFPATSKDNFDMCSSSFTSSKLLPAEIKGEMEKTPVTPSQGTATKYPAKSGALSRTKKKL
Excerpt: as §1

BRK, sequence (Q13882 whole entry): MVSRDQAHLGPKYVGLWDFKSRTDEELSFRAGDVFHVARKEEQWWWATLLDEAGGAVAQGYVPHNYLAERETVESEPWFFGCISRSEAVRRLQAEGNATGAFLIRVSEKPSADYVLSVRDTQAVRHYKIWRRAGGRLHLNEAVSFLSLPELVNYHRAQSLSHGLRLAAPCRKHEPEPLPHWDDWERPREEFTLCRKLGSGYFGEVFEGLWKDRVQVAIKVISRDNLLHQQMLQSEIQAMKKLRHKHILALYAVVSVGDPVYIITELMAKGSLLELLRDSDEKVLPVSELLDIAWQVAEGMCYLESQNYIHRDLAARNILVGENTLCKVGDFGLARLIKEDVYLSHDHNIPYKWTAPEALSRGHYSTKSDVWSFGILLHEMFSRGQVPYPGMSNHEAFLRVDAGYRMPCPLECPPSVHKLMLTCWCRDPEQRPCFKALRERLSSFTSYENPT

SMILES | remaining activity at 1 µM (BRK) | remaining activity at 1 µM (ERK2) | remaining activity at 1 µM (NUAK1) | remaining activity at 1 µM (DYRK1A) | remaining activity at 1 µM (PIM2) | remaining activity at 1 µM (DYRK2) | remaining activity at 1 µM (SIK3) | remaining activity at 1 µM (IRAK1) | remaining activity at 1 µM (BRSK2) | remaining activity at 1 µM (ERK1) | remaining activity at 1 µM (STK33) | remaining activity at 1 µM (BRK; 1 µM) | remaining activity at 1 µM (ERK2; 1 µM) | remaining activity at 1 µM (NUAK1; 1 µM) | remaining activity at 1 µM (DYRK1A; 1 µM) | remaining activity at 1 µM (PIM2; 1 µM) | remaining activity at 1 µM (DYRK2; 1 µM) | remaining activity at 1 µM (SIK3; 1 µM) | remaining activity at 1 µM (IRAK1; 1 µM) | remaining activity at 1 µM (BRSK2; 1 µM) | other results
COc1ccc(Cl)c(S(=O)(=O)Nc2ccc(-c3nc(OC[C@H]4CNCCO4)c4c(C)n[nH]c4n3)cc2)c1 [290-R, reference compound] | 113% | 109% | 91% | 103% | 105% | 100% | 102% | 93% | 102% | 115% | 74% |  |  |  |  |  |  |  |  |  | 
Cc1ccc(F)c(S(=O)(=O)Nc2ccc(-c3nc(OC[C@H]4CNCCO4)c4cn[nH]c4n3)cc2)c1 [308-R, reference compound] | 86% | 110% | 103% | 81% | 127% | 74% | 69% | 88% | 82% | 106% | 36% |  |  |  |  |  |  |  |  |  | 
Cc1ccc(F)c(S(=O)(=O)Nc2ccc(-c3nc(OC[C@H]4CN(CCCCCCOCCOCCOCC(=O)N[C@H](C(=O)N5C[C@H](O)C[C@H]5C(=O)NCc5ccc(-c6scnc6C)cc5)C(C)(C)C)CCO4)c4cn[nH]c4n3)cc2)c1 [SGK3-PROTAC1] |  |  |  |  |  |  |  |  |  |  | 110% | 87% | 104% | 98% | 105% | 98% | 102% | 79% | 98% | 97% | remaining activity at 1 µM (ERK1; 1 µM): 103%
Cc1ccc(F)c(S(=O)(=O)Nc2ccc(-c3nc(OC[C@H]4CN(CCCCCCOCCOCCOCC(=O)N[C@H](C(=O)N5C[C@@H](O)C[C@H]5C(=O)NCc5ccc(-c6scnc6C)cc5)C(C)(C)C)CCO4)c4cn[nH]c4n3)cc2)c1 [cisSGK3-PROTAC1] |  |  |  |  |  |  |  |  |  |  | 109% | 105% | 95% | 90% | 99% | 105% | 97% | 117% | 105% | 101% | remaining activity at 1 µM (ERK1; 1 µM): 101%
